# Experimental data reported in patent US11839613B2, “Pyrimidine derivatives as PGE2 receptor modulators” (IDORSIA PHARMACEUTICALS LTD, priority 2017, dated 2023).
# pIC50: −log10 of the molar value.
# Tests used:
# PTGER2 (EP2) = PTGER2 (EP2) (Homo sapiens (Human), UniProt P43116); assay: hEP2 b-arrestin assay (PathHunter HEK 293 PTGER2 b-arrestin cells); assay type: cell-based; settings: antagonistic activity, beta-arrestin assay; read-out: hEP2 b-arr IC50
# Method: Plate is pre-incubated 15 minutes at 37° C. Then five microliters of PGE2 (final conc. 5 μM) are transferred into the assay plate. Plate is incubated 120 minutes at 37° C.
# (each concentration is measured in duplicate)
# PTGER4 (EP4) = PTGER4 (EP4) (Homo sapiens (Human), UniProt P35408); assay: cell-based
# Sequence of PTGER4 (EP4) (P35408 whole entry): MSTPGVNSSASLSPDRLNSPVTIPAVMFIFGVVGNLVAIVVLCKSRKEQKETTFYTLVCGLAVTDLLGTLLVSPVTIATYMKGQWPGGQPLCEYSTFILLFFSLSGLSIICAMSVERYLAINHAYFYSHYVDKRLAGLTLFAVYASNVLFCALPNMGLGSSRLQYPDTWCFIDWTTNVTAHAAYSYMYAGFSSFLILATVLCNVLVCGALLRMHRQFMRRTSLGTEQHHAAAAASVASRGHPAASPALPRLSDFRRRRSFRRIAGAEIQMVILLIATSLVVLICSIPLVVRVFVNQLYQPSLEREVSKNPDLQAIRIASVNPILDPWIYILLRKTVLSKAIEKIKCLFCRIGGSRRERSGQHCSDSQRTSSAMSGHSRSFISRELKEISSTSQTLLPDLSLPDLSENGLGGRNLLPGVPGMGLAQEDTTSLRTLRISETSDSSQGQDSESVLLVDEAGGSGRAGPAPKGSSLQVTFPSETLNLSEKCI
# Sequence of PTGER2 (EP2) (P43116 whole entry): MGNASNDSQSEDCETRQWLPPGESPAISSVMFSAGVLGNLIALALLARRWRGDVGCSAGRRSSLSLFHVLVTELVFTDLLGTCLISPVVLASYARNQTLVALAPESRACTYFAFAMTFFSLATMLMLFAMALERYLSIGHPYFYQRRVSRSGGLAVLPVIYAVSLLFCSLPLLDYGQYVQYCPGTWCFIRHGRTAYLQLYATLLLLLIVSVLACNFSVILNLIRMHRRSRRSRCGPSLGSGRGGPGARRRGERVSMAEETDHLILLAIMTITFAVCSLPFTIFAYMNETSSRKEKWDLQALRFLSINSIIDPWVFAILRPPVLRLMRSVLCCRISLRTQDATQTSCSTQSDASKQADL
Structure (SMILES),pIC50 (PTGER2 (EP2)),pIC50 (PTGER4 (EP4))
"CCCc1cc(-c2cc(NCCc3cc4c(cc3OCC)OCCO4)ncn2)ccc1CC(=O)O [Example 402, (4-{6-[2-(7-Ethoxy-2,3-dihydro-benzo[1,4]dioxin-6-yl)-ethylamino]-pyrimidin-4-yl}-2-propyl-phenyl)-acetic acid]",7.66,7.21
"CCc1cc(-c2cc(NCCc3ccc4sccc4c3F)ncn2)ccc1CC(=O)O [Example 514, (2-Ethyl-4-{6-[2-(4-fluoro-benzo[b]thiophen-5-yl)-ethylamino]-pyrimidin-4-yl}-phenyl)-acetic acid]",6.58,6.95
"CCc1cc(-c2cc(NCCc3ccc4c(c3C)OCCO4)ncn2)ccc1C(=O)O [Example 515, 2-Ethyl-4-{6-[2-(5-methyl-2,3-dihydro-benzo[1,4]dioxin-6-yl)-ethylamino]-pyrimidin-4-yl}-benzoic acid]",7.17,6.05
"COc1cc2c(c(F)c1CCNc1cc(-c3ccc(CC(=O)O)c(OC(F)F)c3)ncn1)OCCO2 [Example 442, (2-Difluoromethoxy-4-{6-[2-(5-fluoro-7-methoxy-2,3-dihydro-benzo[1,4]dioxin-6-yl)-ethylamino]-pyrimidin-4-yl}-phenyl)-acetic acid]",7.09,7.57
"COc1cc(-c2cc(NCCc3ccc4sccc4c3F)ncn2)ccc1OCCC(=O)O [Example 437, 3-(4-{6-[2-(4-Fluoro-benzo[b]thiophen-5-yl)-ethylamino]-pyrimidin-4-yl}-2-methoxy-phenoxy)-propionic acid]",6.98,7.39
"CCc1cc(-c2cc(NCCc3cc(F)c4sccc4c3)ncn2)cc(C)c1CC(=O)O [Example 542, (2-Ethyl-4-{6-[2-(7-fluoro-benzo[b]thiophen-5-yl)-ethylamino]-pyrimidin-4-yl}-6-methyl-phenyl)-acetic acid]",6.22,7.04
"COc1cc2c(cc1CCNc1cc(-c3ccc(CC(=O)O)c(OC(F)(F)F)c3)ncn1)OCCO2 [Example 450, (4-{6-[2-(7-Methoxy-2,3-dihydro-benzo[1,4]dioxin-6-yl)-ethylamino]-pyrimidin-4-yl}-2-trifluoromethoxy-phenyl)-acetic acid]",7.18,7.01
"CCOc1cc(-c2cc(NCCc3cc4c(cc3OC)OCCO4)ncn2)cc(F)c1CC(=O)O [Example 373, (2-Ethoxy-6-fluoro-4-{6-[2-(7-methoxy-2,3-dihydro-benzo[1,4]dioxin-6-yl)-ethylamino]-pyrimidin-4-yl}-phenyl)-acetic acid]",6.59,6.93
"CCCc1cc(-c2cc(NCCc3ccc4sccc4c3F)ncn2)ccc1C(C)C(=O)O (racemic) [Example 482, rac-2-(4 -{6-[2-(4-Fluoro-benzo[b]thiophen-5-yl)-ethylamino]-pyrimidin-4-yl}-2-propyl-phenyl)-propionic acid]",6.35,7.04
"CCOc1cc(-c2cc(NCCc3cc(F)c4scc(Cl)c4c3)ncn2)ccc1CC(=O)O [Example 502, (4-{6-[2-(3-Chloro-7-fluoro-benzo[b]thiophen-5-yl)-ethylamino]-pyrimidin-4-yl}-2-ethoxy-phenyl)-acetic acid]",6.99,6.04
"Cc1c(CCNc2cc(-c3ccc(CC(=O)O)c(OC(F)F)c3)ncn2)ccc2c1OCCO2 [Example 511, (2-Difluoromethoxy-4-{6-[2-(5-methyl-2,3-dihydro-benzo[1,4]dioxin-6-yl)-ethylamino]-pyrimidin-4-yl}-phenyl)-acetic acid]",6.52,6.37
"CCOc1cc(-c2cc(NCCc3ccc4ccsc4c3C)ncn2)ccc1CC(=O)O [Example 472, (2-Ethoxy-4-{6-[2-(7-methyl-benzo[b]thiophen-6-yl)-ethylamino]-pyrimidin-4-yl}-phenyl)-acetic acid]",6.17,6.61
"O=C(O)c1ccc(-c2cc(NCCc3cc(F)c4sccc4c3)ncn2)cc1O [Example 563, 4-{6-[2-(7-Fluoro-benzo[b]thiophen-5-yl)-ethylamino]-pyrimidin-4-yl}-2-hydroxy-benzoic acid]",6.01,6.24
"CCOc1cc(-c2cc(NCCc3ccc4ccsc4c3C)ncn2)ccc1C(=O)O [Example 470, 2-Ethoxy-4-{6-[2-(7-methyl-benzo[b]thiophen-6-yl)-ethylamino]-pyrimidin-4-yl}-benzoic acid]",6.46,6.38
"Cc1cc(-c2cc(NCCc3cc(F)c4sccc4c3)ncn2)ccc1CC(=O)O [Example 544, (4-{6-[2-(7-Fluoro-benzo[b]thiophen-5-yl)-ethylamino]-pyrimidin-4-yl}-2-methyl-phenyl)-acetic acid]",6.07,6.34
"O=C(O)c1ccc(-c2cc(NCCc3cc(F)c4sccc4c3)ncn2)cc1OC1CC1 [Example 449, 2-Cyclopropoxy-4-{6-[2-(7-fluoro-benzo[b]thiophen-5-yl)-ethylamino]-pyrimidin-4-yl}-benzoic acid]",7.08,7.34

Structure (SMILES),pIC50 (PTGER2 (EP2)),pIC50 (PTGER4 (EP4))
"CCCc1cc(-c2cc(NCCc3cc4c(cc3F)OCCO4)ncn2)ccc1CC(=O)O [Example 528, (4-{6-[2-(7-Fluoro-2,3-dihydro-benzo[1,4]dioxin-6-yl)-ethylamino]-pyrimidin-4-yl}-2-propyl-phenyl)-acetic acid]",6.29,6.70
"CCOc1cc(-c2cc(NCCc3cc(F)c4sccc4c3)ncn2)ccc1CC(=O)O [Example 363, (2-Ethoxy-4-{6-[2-(7-fluoro-benzo[b]thiophen-5-yl)-ethylamino]-pyrimidin-4-yl}-phenyl)-acetic acid]",6.32,7.23
"CCOc1cc(-c2cc(NCCc3cc4ccsc4c(F)c3OC)ncn2)sc1C(=O)O [Example 484, 3-Ethoxy-5-{6-[2-(7-fluoro-6-methoxy-benzo[b]thiophen-5-yl)-ethylamino]-pyrimidin-4-yl}-thiophene-2-carboxylic acid]",8.52,8.52
"CCOc1cc(-c2cc(NCCc3ccc4sccc4c3F)ncn2)ccc1C(=O)O [Example 365, 2-Ethoxy-4-{6-[2-(4-fluoro-benzo[b]thiophen-5-yl)-ethylamino]-pyrimidin-4-yl}-benzoic acid]",7.11,6.83
"CCOc1cc(-c2cc(NCCc3cc(C)c4sccc4c3)ncn2)sc1C(=O)O [Example 391, 3-Ethoxy-5-{6-[2-(7-methyl-benzo[b]thiophen-5-yl)-ethylamino]-pyrimidin-4-yl}-thiophene-2-carboxylic acid]",6.88,7.72
"CCCc1cc(-c2cc(NCCc3cc(F)c4sccc4c3)ncn2)ccc1C1(C(=O)O)CC1 [Example 557, 1-(4-{6-[2-(7-Fluoro-benzo[b]thiophen-5-yl)-ethylamino]-pyrimidin-4-yl}-2-propyl-phenyl)-cyclopropanecarboxylic acid]",6.00,6.93
"CSc1cc(-c2cc(NCCc3cc(C)c4sccc4c3)ncn2)ccc1C(=O)O [Example 477, 4-{6-[2-(7-Methyl-benzo[b]thiophen-5-yl)-ethylamino]-pyrimidin-4-yl}-2-methylsulfanyl-benzoic acid]",6.50,6.68
"COc1cc(-c2cc(NCCc3cc(F)c4sccc4c3)ncn2)ccc1C(=O)O [Example 497, 4-{6-[2-(7-Fluoro-benzo[b]thiophen-5-yl)-ethylamino]-pyrimidin-4-yl}-2-methoxy-benzoic acid]",6.35,6.35
"O=C(O)c1ccc(-c2cc(NCCc3ccc4scc(Cl)c4c3)ncn2)cc1OC1CCC1 [Example 430, 4-{6-[2-(3-Chloro-benzo[b]thiophen-5-yl)-ethylamino]-pyrimidin-4-yl}-2-cyclobutoxy-benzoic acid]",7.16,7.18
"CC(C)Oc1cc(-c2cc(NCCc3cc(F)c4sccc4c3)ncn2)ccc1C(=O)O [Example 491, 4-{6-[2-(7-Fluoro-benzo[b]thiophen-5-yl)-ethylamino]-pyrimidin-4-yl}-2-isopropoxy-benzoic acid]",6.43,6.83
"CCOc1cc(-c2cc(NCCc3ccc4scc(Cl)c4c3)ncn2)ccc1C(=O)O [Example 490, 4-{6-[2-(3-Chloro-benzo[b]thiophen-5-yl)-ethylamino]-pyrimidin-4-yl}-2-ethoxy-benzoic acid]",7.05,6.84
"CCOc1cc(-c2cc(NCCc3c(OC)cc4ccccc4c3C)ncn2)cc(F)c1CC(=O)O [Example 374, (2-Ethoxy-6-fluoro-4-{6-[2-(3-methoxy-1-methyl-naphthalen-2-yl)-ethylamino]-pyrimidin-4-yl}-phenyl)-acetic acid]",6.48,7.28
"CSc1cc(-c2cc(NCCc3cc4c(cc3OC(F)F)OCCO4)ncn2)ccc1C(=O)O [Example 495, 4-{6-[2-(7-Difluoromethoxy-2,3-dihydro-benzo[1,4]dioxin-6-yl)-ethylamino]-pyrimidin-4-yl}-2-methylsulfanyl-benzoic acid]",7.11,6.71
"O=C(O)C1Cc2cc(-c3cc(NCCc4ccc5sccc5c4)ncn3)ccc2O1 (racemic) [Example 474, rac-5-[6-(2-Benzo[b]thiophen-5-yl-ethylamino)-pyrimidin-4-yl]-2,3-dihydro-benzofuran-2-carboxylic acid]",6.57,6.04
"CCc1cc(-c2cc(NCCc3c(OC)cc4ccccc4c3C)ncn2)ccc1CC(=O)O [Example 445, (2-Ethyl-4-{6-[2-(3-methoxy-1-methyl-naphthalen-2-yl)-ethylamino]-pyrimidin-4-yl}-phenyl)-acetic acid]",7.06,7.42
"CCCc1cc(-c2cc(NCCc3cc4c(cc3OC)OCCO4)ncn2)ccc1C(C)C(=O)O (racemic) [Example 401, rac-2-(4-{6-[2-(7-Methoxy-2,3-dihydro-benzo[1,4]dioxin-6-yl)-ethylamino]-pyrimidin-4-yl]-2-propyl-phenyl)-propionic acid]",6.48,6.94
